PMC8307506, “Identification of Dihydromyricetin and Metabolites in Serum and Brain Associated with Acute Anti-Ethanol Intoxicating Effects in Mice” (International Journal of Molecular Sciences, 2021)

Target: T1, α5β3γ2 GABAA receptors (Homo sapiens, UniProt P18507+P28472+P31644)
T1 construct: expressed in transfected cells; host or cells: Xenopus oocytes (injected with cDNA)
Assay: Two-electrode voltage clamp electrophysiology in Xenopus oocytes in the presence of GABA
Assay type: cell-based
Details: compound 10 µM, GABA 10 µM
Protocol: Xenopus oocytes were stored in incubation media (pH 7.5), consisting of ND96 supplemented with 2 mM sodium pyruvate, […] gentamycin, and 10 mL heat inactivated HyClone horse serum. Stage 4 to 5 oocytes were injected with 40 nL of cDNA coding for α5, β3, and γ2 subunits in a ratio of 1:1:10, utilizing a Drummond Nanoject III. Injected oocytes were stored at 18 °C and used in electrophysiology studies within 2–7 days of injection.
Whole cell two-electrode voltage clamp (TEVC) recording were conducted on oocytes in the presence of GABA, according to previously reported methods. Oocytes were voltage clamped at a membrane potential of −70 mV. The oocyte recording chamber was continuously perfused with modified bath solution (MBS) with select compound (10 µM) and GABA (10 µM), with a final concentration of 1% DMSO [22, 44]. […] Oocytes were perfused at a rate of 3 mL/min. Electrophysiology recordings were conducted in triplicate compound for each compound. The change of GABAAR activity was determined by comparison of GABAAR potentiation to the EC20 with control saline in the presence of GABA.
Pharmacokinetic parameters were calculated using noncompartmental analysis. Elimination half-life (T1/2) was calculated with R software from the linear regression of the terminal phase of the log serum concentration-time curve. The AUC0→24 was calculated with OriginLab software by trapezoidal analysis of the serum concentration-time plot. Cmax and Tmax were determined directly from observed data. Data are expressed as mean ± SEM. Statistical significance between AUC0→24 among test groups was calculated with an independent t-test (GraphPad software, San Diego, CA, USA). Time to LORR was analyzed by repeated measured ANOVA. Tolerance was determined by mean split in LORR response and confirmed with paired t-test (Week 1 vs. Week 8). Statistical significance of serum concentrations for individual time points was calculated using a two-way analysis of variance (ANOVA) analysis. Post hoc Bonferroni tests were performed when justified. Statistical significance of electrophysiology results compound GABAergic modulation was determined using a paired t-test (Vehicle control vs. Compound, GraphPad software, San Diego CA, USA). p < 0.05 was considered significant.

T1 sequence (P31644 32-462): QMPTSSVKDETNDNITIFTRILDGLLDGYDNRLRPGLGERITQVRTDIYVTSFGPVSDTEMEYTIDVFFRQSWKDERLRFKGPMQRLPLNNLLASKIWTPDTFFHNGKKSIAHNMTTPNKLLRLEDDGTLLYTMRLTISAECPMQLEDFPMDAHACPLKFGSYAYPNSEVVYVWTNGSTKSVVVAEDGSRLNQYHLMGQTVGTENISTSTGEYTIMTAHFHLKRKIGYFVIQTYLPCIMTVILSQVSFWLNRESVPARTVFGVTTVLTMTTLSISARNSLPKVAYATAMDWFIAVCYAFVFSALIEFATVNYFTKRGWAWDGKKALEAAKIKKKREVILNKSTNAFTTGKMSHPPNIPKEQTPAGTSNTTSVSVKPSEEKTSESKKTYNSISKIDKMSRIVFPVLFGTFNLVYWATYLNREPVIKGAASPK
T1 sequence (P28472 26-473): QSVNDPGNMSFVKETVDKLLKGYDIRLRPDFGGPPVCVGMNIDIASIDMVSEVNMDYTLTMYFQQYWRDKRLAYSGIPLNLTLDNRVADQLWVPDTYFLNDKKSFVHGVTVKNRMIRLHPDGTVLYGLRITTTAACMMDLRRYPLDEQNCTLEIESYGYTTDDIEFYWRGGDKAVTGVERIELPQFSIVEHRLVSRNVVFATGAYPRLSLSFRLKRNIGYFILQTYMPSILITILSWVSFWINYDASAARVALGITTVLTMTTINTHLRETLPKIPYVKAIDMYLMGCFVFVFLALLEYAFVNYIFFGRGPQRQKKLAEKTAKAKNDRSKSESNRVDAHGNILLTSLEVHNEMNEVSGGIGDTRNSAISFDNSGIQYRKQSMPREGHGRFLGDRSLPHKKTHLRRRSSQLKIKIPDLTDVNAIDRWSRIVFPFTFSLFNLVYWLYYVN
T1 sequence (P18507 40-475): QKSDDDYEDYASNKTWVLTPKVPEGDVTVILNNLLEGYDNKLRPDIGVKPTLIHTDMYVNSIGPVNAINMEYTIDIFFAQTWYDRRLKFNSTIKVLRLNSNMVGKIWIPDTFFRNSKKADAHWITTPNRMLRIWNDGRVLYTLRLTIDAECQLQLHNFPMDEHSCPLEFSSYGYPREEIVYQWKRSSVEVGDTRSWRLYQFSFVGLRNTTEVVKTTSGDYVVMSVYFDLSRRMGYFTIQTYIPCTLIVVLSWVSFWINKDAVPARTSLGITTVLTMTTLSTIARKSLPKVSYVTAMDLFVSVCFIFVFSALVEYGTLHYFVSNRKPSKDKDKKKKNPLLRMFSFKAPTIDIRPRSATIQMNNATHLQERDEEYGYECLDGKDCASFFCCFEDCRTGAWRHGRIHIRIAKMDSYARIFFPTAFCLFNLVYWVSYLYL

- GABAAR potentiation: +43.2%
- GABAAR potentiation (mean ± SEM): +43.2 ± 5.6
SMILES: O=C1c2c(O)cc(O)cc2O[C@H](c2cc(O)c(O)c(O)c2)[C@H]1O [DHM, Dihydromyricetin]
